# Laboratory results published in ChEMBL document CHEMBL4507325 (2021).
# What was measured:
# [1] = molecular target: Insulin receptor (Homo sapiens) (UniProt P06213); details: Rattus norvegicus; Compound concentration 10.0 uM
# [2] = molecular target: D(3) dopamine receptor (Homo sapiens) (UniProt P35462); details: Compound concentration 10.0 uM
# [3] = molecular target: Muscarinic acetylcholine receptor M3 (Homo sapiens) (UniProt P20309); details: Compound concentration 10.0 uM
# [4] = molecular target: Mu-type opioid receptor (Homo sapiens) (UniProt P35372); details: Compound concentration 10.0 uM
# Mu-type opioid receptor (Homo sapiens), sequence (P35372 whole entry): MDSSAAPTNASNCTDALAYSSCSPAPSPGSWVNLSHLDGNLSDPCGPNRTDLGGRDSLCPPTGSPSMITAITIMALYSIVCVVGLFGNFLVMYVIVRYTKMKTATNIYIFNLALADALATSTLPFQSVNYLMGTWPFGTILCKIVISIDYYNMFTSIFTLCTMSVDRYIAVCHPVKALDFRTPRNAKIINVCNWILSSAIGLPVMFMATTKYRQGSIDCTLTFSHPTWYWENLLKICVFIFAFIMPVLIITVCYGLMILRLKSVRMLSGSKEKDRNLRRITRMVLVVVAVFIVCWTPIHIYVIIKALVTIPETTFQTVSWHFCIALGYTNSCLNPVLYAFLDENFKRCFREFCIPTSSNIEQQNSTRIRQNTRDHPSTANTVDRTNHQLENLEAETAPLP
# [5] = molecular target: Kappa-type opioid receptor (Homo sapiens) (UniProt P41145); details: Compound concentration 10.0 uM
# Kappa-type opioid receptor (Homo sapiens), sequence (P41145 whole entry): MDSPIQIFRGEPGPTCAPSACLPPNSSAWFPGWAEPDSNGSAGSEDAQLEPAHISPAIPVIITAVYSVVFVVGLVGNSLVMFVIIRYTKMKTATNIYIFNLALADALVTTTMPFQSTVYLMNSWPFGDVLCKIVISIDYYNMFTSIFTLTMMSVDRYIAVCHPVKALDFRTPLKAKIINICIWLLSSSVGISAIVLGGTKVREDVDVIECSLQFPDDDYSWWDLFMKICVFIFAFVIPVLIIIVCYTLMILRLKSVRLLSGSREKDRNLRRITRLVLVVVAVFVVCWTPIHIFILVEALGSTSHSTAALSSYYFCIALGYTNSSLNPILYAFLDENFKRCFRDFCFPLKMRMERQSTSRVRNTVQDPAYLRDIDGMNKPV
# [6] = molecular target: D(1A) dopamine receptor (Homo sapiens) (UniProt P21728); details: Compound concentration 10.0 uM
# D(1A) dopamine receptor (Homo sapiens), sequence (P21728 whole entry): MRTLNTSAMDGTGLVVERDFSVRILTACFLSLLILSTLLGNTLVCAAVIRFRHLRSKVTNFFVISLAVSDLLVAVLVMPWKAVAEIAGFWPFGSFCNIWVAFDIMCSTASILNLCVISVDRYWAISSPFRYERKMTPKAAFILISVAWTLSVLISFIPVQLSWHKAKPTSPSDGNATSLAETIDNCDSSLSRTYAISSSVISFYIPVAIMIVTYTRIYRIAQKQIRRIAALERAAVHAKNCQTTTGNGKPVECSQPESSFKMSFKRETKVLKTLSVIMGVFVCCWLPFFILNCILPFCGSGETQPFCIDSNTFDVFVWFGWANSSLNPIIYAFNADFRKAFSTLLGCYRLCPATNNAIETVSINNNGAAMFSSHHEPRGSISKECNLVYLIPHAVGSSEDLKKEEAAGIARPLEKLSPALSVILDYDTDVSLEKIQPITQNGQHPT
# [7] = molecular target: Alpha-2B adrenergic receptor (Homo sapiens) (UniProt P18089); details: Compound concentration 10.0 uM
# Alpha-2B adrenergic receptor (Homo sapiens), sequence (P18089 whole entry): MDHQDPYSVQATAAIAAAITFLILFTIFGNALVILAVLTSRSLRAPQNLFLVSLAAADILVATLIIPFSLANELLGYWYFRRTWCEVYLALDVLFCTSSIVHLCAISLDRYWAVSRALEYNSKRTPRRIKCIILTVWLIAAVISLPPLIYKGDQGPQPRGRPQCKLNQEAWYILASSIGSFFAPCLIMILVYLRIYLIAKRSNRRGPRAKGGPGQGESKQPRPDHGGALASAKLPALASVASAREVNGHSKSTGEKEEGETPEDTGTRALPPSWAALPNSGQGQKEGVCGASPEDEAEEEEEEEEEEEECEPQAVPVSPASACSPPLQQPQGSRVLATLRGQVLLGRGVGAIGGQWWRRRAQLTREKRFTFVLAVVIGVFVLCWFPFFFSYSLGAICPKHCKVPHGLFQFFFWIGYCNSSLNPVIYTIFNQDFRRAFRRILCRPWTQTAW
# [8] = molecular target: Alpha-1D adrenergic receptor (Homo sapiens) (UniProt P25100); details: Compound concentration 10.0 uM
# Alpha-1D adrenergic receptor (Homo sapiens), sequence (P25100 whole entry): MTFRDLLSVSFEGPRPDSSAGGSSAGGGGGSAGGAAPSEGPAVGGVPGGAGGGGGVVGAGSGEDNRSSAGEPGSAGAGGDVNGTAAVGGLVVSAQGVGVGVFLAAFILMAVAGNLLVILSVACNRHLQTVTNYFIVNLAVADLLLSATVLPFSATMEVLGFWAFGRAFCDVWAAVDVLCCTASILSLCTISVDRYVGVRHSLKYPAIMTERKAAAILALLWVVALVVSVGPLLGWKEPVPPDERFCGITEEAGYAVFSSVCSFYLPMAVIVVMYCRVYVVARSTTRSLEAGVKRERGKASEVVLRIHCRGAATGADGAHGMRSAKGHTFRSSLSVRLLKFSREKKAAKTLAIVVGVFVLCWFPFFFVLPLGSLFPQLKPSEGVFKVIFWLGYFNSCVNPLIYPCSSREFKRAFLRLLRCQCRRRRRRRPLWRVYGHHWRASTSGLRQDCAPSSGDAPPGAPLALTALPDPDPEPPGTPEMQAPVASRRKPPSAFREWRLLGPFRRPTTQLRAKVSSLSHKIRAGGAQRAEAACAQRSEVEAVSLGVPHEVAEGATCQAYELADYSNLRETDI
# [9] = molecular target: Androgen receptor (Homo sapiens) (UniProt P10275); details: Compound concentration 10.0 uM
# [10] = molecular target: Histamine H4 receptor (Homo sapiens) (UniProt Q9H3N8); details: Compound concentration 10.0 uM
# Histamine H4 receptor (Homo sapiens), sequence (Q9H3N8 whole entry): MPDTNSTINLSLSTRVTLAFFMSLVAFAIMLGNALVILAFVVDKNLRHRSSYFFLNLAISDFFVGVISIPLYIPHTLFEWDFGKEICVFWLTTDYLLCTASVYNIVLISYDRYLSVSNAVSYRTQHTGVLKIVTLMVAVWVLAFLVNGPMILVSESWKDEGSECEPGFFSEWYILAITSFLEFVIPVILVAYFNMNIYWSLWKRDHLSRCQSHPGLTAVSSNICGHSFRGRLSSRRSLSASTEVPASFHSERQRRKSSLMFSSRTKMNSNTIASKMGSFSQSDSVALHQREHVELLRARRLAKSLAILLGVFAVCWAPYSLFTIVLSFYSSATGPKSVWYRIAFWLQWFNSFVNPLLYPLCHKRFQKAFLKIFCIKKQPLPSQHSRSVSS
# [11] = molecular target: Glutamate receptor ionotropic, kainate (Rattus norvegicus) (UniProt P22756+Q01812+P42260+P42264+Q63273); details: Compound concentration 10.0 uM
# [12] = molecular target: Adenosine receptor A1 (Homo sapiens) (UniProt P30542); details: Compound concentration 10.0 uM
# [13] = molecular target: 5-hydroxytryptamine receptor 2B (Homo sapiens) (UniProt P41595); details: Compound concentration 10.0 uM
# [14] = molecular target: Sodium-dependent noradrenaline transporter (Homo sapiens) (UniProt P23975); details: Compound concentration 10.0 uM
# [15] = molecular target: B1 bradykinin receptor (Homo sapiens) (UniProt P46663); details: Compound concentration 10.0 uM
# [16] = molecular target: D(2) dopamine receptor (Homo sapiens) (UniProt P14416); details: Compound concentration 10.0 uM
# [17] = molecular target: Alpha-1B adrenergic receptor (Homo sapiens) (UniProt P35368); details: Compound concentration 10.0 uM
# [18] = molecular target: Alpha-2A adrenergic receptor (Homo sapiens) (UniProt P08913); details: Compound concentration 10.0 uM
# Alpha-2A adrenergic receptor (Homo sapiens), sequence (P08913 whole entry): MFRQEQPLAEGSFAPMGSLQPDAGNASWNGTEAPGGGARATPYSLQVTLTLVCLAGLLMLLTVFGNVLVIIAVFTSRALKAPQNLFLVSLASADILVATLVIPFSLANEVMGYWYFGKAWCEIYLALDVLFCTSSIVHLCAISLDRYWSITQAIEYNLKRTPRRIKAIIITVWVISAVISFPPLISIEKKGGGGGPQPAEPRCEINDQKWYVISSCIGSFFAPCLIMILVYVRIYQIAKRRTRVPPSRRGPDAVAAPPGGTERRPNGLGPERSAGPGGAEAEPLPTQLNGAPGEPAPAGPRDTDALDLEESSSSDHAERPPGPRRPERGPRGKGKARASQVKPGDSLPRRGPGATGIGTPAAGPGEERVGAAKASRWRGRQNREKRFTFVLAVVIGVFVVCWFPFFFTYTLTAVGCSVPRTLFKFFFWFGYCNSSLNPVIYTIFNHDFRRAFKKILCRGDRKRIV
# [19] = molecular target: Adenosine receptor A2a (Homo sapiens) (UniProt P29274); details: Compound concentration 10.0 uM
# Homo sapiens = species on record: Homo sapiens; details: Compound concentration 10.0 uM
# [20] = molecular target: Glucocorticoid receptor (Homo sapiens) (UniProt P04150); details: Compound concentration 10.0 uM
# [21] = molecular target: Progesterone receptor (Homo sapiens) (UniProt P06401); details: Compound concentration 10.0 uM
# [22] = molecular target: Aspartate aminotransferase, cytoplasmic (Homo sapiens, UniProt P17174); assay: Aspartate transaminase assay (GOT1)
# [23] = molecular target: 5-hydroxytryptamine receptor 2C (Homo sapiens) (UniProt P28335); details: Compound concentration 10.0 uM
# 5-hydroxytryptamine receptor 2C (Homo sapiens), sequence (P28335 whole entry): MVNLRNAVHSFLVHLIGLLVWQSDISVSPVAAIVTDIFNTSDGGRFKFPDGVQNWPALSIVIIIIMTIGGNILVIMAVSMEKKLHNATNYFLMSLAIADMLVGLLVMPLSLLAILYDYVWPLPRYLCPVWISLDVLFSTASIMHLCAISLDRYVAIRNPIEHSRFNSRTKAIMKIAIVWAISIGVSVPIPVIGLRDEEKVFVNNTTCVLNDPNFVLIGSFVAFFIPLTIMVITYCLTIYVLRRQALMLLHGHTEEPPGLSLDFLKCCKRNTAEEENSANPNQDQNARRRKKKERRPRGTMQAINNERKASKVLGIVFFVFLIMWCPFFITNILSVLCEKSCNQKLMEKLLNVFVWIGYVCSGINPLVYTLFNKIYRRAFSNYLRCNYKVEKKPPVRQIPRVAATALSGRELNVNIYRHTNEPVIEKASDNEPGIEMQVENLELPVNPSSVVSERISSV
# [24] = molecular target: 5-hydroxytryptamine receptor 2A (Homo sapiens) (UniProt P28223); details: Compound concentration 10.0 uM
# [25] = molecular target: Sigma non-opioid intracellular receptor 1 (Homo sapiens) (UniProt Q99720); details: Compound concentration 10.0 uM
# [26] = molecular target: T1, GABA-A receptor; anion channel (Rattus norvegicus) (UniProt O09028+P15431+P18506+P18508+P19969+P20236+P23574+P23576+P28471+P28473+P30191+P62813+P63079+P63138+Q91ZM7+Q9ES14); details: Compound concentration 10.0 uM
# [27] = molecular target: Mu-type opioid receptor (Homo sapiens) (UniProt P35372); details: Compound concentration 10.0 uM; remark: listed apart in the source
# [28] = molecular target: Glutamate NMDA receptor (Rattus norvegicus) (UniProt P35439+Q00959+Q00960+Q00961+Q62645+Q8VHN2+Q9R1M7); details: Compound concentration 10.0 uM
# [29] = molecular target: Endothelin-1 receptor (Homo sapiens) (UniProt P25101); details: Compound concentration 10.0 uM
# Endothelin-1 receptor (Homo sapiens), sequence (P25101 whole entry): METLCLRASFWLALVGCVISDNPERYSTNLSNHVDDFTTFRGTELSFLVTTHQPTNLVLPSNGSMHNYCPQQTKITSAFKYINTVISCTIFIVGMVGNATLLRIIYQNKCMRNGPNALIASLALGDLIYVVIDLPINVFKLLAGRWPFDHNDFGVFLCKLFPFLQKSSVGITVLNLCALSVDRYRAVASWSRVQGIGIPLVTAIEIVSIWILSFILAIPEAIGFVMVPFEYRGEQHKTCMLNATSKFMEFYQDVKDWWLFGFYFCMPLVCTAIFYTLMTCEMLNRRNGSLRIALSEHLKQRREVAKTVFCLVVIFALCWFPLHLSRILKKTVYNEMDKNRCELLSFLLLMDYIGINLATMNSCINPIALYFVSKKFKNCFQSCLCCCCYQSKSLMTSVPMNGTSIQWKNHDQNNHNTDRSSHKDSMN
# [30] = molecular target: Histamine H1 receptor (Homo sapiens) (UniProt P35367); details: Compound concentration 10.0 uM
# Histamine H1 receptor (Homo sapiens), sequence (P35367 whole entry): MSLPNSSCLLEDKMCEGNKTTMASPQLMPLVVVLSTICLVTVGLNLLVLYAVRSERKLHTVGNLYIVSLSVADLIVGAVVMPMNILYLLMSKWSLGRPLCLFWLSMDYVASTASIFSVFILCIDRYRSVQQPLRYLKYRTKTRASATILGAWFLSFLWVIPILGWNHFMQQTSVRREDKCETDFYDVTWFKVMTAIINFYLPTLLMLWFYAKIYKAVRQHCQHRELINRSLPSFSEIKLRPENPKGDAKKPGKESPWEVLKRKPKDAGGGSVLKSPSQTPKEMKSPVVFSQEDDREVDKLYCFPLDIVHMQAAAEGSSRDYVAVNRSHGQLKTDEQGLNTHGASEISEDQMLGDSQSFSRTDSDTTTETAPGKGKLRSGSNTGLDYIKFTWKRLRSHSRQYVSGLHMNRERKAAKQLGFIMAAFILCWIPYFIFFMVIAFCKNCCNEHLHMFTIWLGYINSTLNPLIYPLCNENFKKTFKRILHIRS
# [31] = molecular target: Muscarinic acetylcholine receptor M1 (Homo sapiens) (UniProt P11229); details: Compound concentration 10.0 uM
# [32] = molecular target: D(3) dopamine receptor (Homo sapiens) (UniProt P35462); details: Compound concentration 10.0 uM; remark: listed apart in the source
# [33] = molecular target: 5-hydroxytryptamine receptor 1E (Homo sapiens) (UniProt P28566); details: Compound concentration 10.0 uM
# [34] = molecular target: Histamine H1 receptor (Homo sapiens) (UniProt P35367); details: Compound concentration 10.0 uM; remark: listed apart in the source
# [35] = molecular target: Beta-3 adrenergic receptor (Homo sapiens) (UniProt P13945); details: Compound concentration 10.0 uM
# [36] = molecular target: Endothelin receptor type B (Homo sapiens) (UniProt P24530); details: Compound concentration 10.0 uM
# [37] = molecular target: Alpha-2B adrenergic receptor (Homo sapiens) (UniProt P18089); details: Compound concentration 10.0 uM; remark: listed apart in the source
# [38] = molecular target: Purinergic P2Y (Rattus norvegicus) (UniProt O35811+Q9EPX4+P49651+Q63371+P41232+O35881+Q6GUG4); details: Compound concentration 10.0 uM
# [39] = molecular target: T1, GABA-A receptor; anion channel (Rattus norvegicus); details: Compound concentration 10.0 uM; remark: listed apart in the source
# Rattus norvegicus = species on record: Rattus norvegicus; details: Compound concentration 10.0 uM
# [40] = molecular target: Muscarinic acetylcholine receptor M4 (Homo sapiens) (UniProt P08173); details: Compound concentration 10.0 uM
# [41] = molecular target: 5-hydroxytryptamine receptor 1A (Homo sapiens) (UniProt P08908); details: Compound concentration 10.0 uM
# [42] = molecular target: Estrogen receptor (Homo sapiens) (UniProt P03372); details: Compound concentration 10.0 uM
# D(3) dopamine receptor (Homo sapiens), sequence (P35462 whole entry): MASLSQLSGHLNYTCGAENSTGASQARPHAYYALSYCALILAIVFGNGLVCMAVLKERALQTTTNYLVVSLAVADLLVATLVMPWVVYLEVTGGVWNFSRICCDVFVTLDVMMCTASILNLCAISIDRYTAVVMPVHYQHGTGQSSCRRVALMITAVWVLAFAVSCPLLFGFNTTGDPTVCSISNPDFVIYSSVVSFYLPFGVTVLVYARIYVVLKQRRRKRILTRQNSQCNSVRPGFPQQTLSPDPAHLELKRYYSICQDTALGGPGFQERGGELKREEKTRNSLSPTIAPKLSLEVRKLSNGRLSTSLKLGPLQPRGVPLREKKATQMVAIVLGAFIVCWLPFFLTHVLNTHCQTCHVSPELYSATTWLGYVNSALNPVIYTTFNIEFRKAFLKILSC
structure (smiles),measurement,setting,value
Cc1ccccc1Oc1cc(-n2c(=O)cc(C(F)(F)F)[nH]c2=O)c2ccccc2c1Cl [BAY-069],inhibition,[1],15%
same,inhibition,[2],14%
same,inhibition,[3],-7%
same,inhibition,[4],0%
same,inhibition,[5],-7%
same,inhibition,[6],7%
same,inhibition,[7],-8.63%
same,inhibition,[8],-5.48%
same,inhibition,[9],9%
same,inhibition,[10],-6.41%
same,inhibition,[11],-4%
same,inhibition,[12],27%
same,inhibition,[13],1%
same,inhibition,[14],-1.01%
same,inhibition,[15],-8%
same,inhibition,[16],-5%
same,inhibition,[17],19.3%
same,inhibition,[18],2%
same,inhibition,[19],-6%
same,inhibition,Homo sapiens,-8%
same,inhibition,[20],13%
same,inhibition,[21],-4%
same,IC50,[22],> 50 µM (not active)
same,inhibition,[23],0.89%
same,inhibition,[24],-2.88%
same,inhibition,[25],19%
same,inhibition,[26],11.3%
same,inhibition,[27],20.9%
same,inhibition,[28],11%
same,inhibition,[29],-2%
same,inhibition,[30],10.3%
same,inhibition,[31],17.8%
same,inhibition,[32],8.85%
same,inhibition,[33],4.31%
same,inhibition,[34],-2%
same,inhibition,[35],22.9%
same,inhibition,[36],-9%
same,inhibition,[37],-2%
same,inhibition,[38],-4%
same,inhibition,[39],4%
same,inhibition,Rattus norvegicus,63.9%
same,inhibition,[40],-8.67%
same,inhibition,[41],9%
same,inhibition,[42],6%
